What all share (assay): NCI-60 cell line screen, 48 h
The test system of experiment [1] is 786-0 renal.
Experiment [2] has as its system CAKI-1 renal.
Experiment [3] relates to CCRF-CEM leukemia.
Experiment [4] relates to HS 578T breast.
Experiment [5] relates to NCI-H226 lung.
For experiment [6], the system named is PC-3 prostate.
Experiment [7] has as its system SF-295 CNS.
Experiment [8] relates to SK-MEL-28 melanoma.
The test system of experiment [9] is SN12C renal.
Experiment [10] has as its system SR leukemia.

Where “and” joins values, the source holds several entries; their conditions need not be identical. Identical values can stand only once.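 Assay format: 96-well plates, 48-hour exposure. Definition used: TGI = concentration required for complete inhibition of growth.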 A value given as a limit tells only on which side of the number the result lay.

Consider `O=C1CC(n2cccc2)c2c(Br)sc(Br)c21` (configuration not stated), for which the TGI was 43.8 µM in [1]; 19.8 µM in [2]; 26.8 µM in [3]; more than 72.3 µM in experiment [4]; 42.2 µM in experiment [5]; 33.9 µM in experiment [6]. The TGI turned out to be 55.8 µM in [7], 41.2 µM in experiment [8], 31.1 µM in experiment [9] and 12 µM in experiment [10].

Turning to `CCOC(=O)C1CCCCN1CCc1c[nH]c2ccccc12` (configuration not stated), the TGI in [1], in experiment [2], in experiment [3], in [4], in experiment [5] and in experiment [6] was more than 100 µM each time. Further, the TGI in [7], in experiment [8], in [9] and in experiment [10] was more than 100 µM each time.

Turning to `Cc1ccc(/C(O)=C/c2nc3ccc([N+](=O)[O-])cc3nc2/C=C(\O)c2ccc(C)cc2)cc1`, the TGI in experiment [1] was more than 100 µM; in [2] it was more than 100 µM; in [3], more than 100 µM; in experiment [4], more than 91.4 µM; in experiment [5], more than 100 µM; in [6], more than 100 µM. Also, the TGI in experiment [7], in experiment [8], in [9] and in [10] was more than 100 µM throughout.

As to `NS(=O)(=O)c1ccc(NNc2c3ccccc3nc3c(C(=O)Nc4ccc(S(=O)(=O)Nc5ncccn5)cc4)cccc23)cc1`, the TGI in experiment [1], in experiment [2], in [3], in experiment [4], in experiment [5] and in experiment [6] was more than 25 µM each time. Also, the TGI in [7], in experiment [8], in [9] and in experiment [10] was more than 25 µM throughout.

Regarding `Cn1c2ccccc2n2c3ncccc3c(=S)c(C#N)c12`, the TGI in experiment [1], in experiment [2], in [3], in experiment [4], in experiment [5] and in experiment [6] was more than 100 µM in each case. Further, the TGI in experiment [7], in experiment [8], in experiment [9] and in experiment [10] was more than 100 µM in each case.

On to `COc1ccc(-c2cc(C(O)C3CCCCN3)c3ccccc3n2)cc1` (configuration not stated), for which the TGI in experiment [1] amounted to 20.6 µM; in experiment [2] it was 18.4 µM; in [3], 9.08 µM; in experiment [4], 40.3 µM; in [5], 20.9 µM; in experiment [6], 16.9 µM. For the same molecule, the TGI in [7] turned out to be 28.4 µM; in experiment [8] it was 5.49 µM; in experiment [9], 23.7 µM; in experiment [10], 1.46 µM.

As for `COC(=O)c1c(C)nc(C)c(NO)c1-c1ccccc1C(F)(F)F`, the TGI in [1] is 30.2 µM; in experiment [2], 43.3 µM; in [3], more than 100 µM; in experiment [4], more than 100 µM; in experiment [5], 76.7 µM; in [6], more than 100 µM. The TGI in experiment [7] is more than 100 µM; in experiment [8], 38.1 µM; in [9], 62.4 µM; in experiment [10] it was more than 100 µM.

`CCOC(=O)c1cnccc1CC1(C#N)c2ccccc2C=CN1C(=O)c1ccccc1` (configuration not stated): the TGI in [1] is more than 100 µM; in experiment [2], more than 100 µM; in experiment [3] it was more than 100 µM; in experiment [4] it was 46.4 µM; in [5], more than 100 µM; in experiment [6], more than 100 µM. For the same molecule, the TGI in experiment [7] is more than 100 µM; in [8] it was more than 100 µM; in [9], 97.3 µM; in experiment [10], 92.7 µM.

For `Cc1ccc(-c2n[nH]c(=O)n2/N=C\c2ccccc2)cc1`, the TGI is more than 100 µM in experiment [1]; more than 100 µM in experiment [2]; more than 100 µM in experiment [3]; 81.3 µM in experiment [4]; more than 100 µM in experiment [5]; more than 100 µM in experiment [6]. The TGI in experiment [7] was 69 µM; in [8] it was more than 100 µM; in experiment [9], more than 90.4 µM; in [10] it was more than 100 µM.

As for `Nc1nc(Cl)cc(NCC2(O)CCCC2)n1`, the TGI in [1], in experiment [2], in experiment [3], in experiment [4], in [5] and in experiment [6] was more than 100 µM in each case. Besides, the TGI in [7], in experiment [8], in experiment [9] and in experiment [10] was more than 100 µM throughout.

Turning to `C=C1C(=O)O[C@H]2[C@H]3O[C@@H](C[C@@H]12)[C@](C)(O)CC[C@@H]1O[C@@]1(C)CCC[C@H]3C`, the TGI was 33.9 µM in [1]; 27.6 µM in experiment [2]; 58.2 µM in experiment [3]; more than 100 µM in experiment [4]; 60 µM in experiment [5]; more than 100 µM in experiment [6]. The TGI was more than 100 µM in experiment [7], more than 100 µM in [8], 65.2 µM in experiment [9] and more than 100 µM in experiment [10].

With `NCCOCC(N)C(=O)O` (configuration not stated), the TGI in experiment [1], in [2], in experiment [3], in [4], in experiment [5] and in experiment [6] was more than 100 µM throughout. The TGI in experiment [7], in experiment [8], in experiment [9] and in experiment [10] was more than 100 µM throughout.

Consider `c1ccc(-c2nnn(CCN3CCCCC3)n2)cc1`, for which the TGI in experiment [1], in [2], in experiment [3], in experiment [4], in [5] and in experiment [6] was more than 100 µM in each case. The TGI in experiment [7], in [8], in experiment [9] and in experiment [10] was more than 100 µM throughout.

As for `CCOP(=O)(OCC)C(C)(CC)NC(=O)C(C(F)(F)F)C(F)(F)F` (configuration not stated), the TGI was more than 100 µM in [1]; more than 100 µM in experiment [2]; 48.7 µM and 53.1 µM in experiment [3]; more than 100 µM in experiment [4]; more than 100 µM in experiment [5]; more than 100 µM in [6]. The TGI in experiment [7], in experiment [8], in [9] and in experiment [10] was more than 100 µM in each case.

Take `CC(C)(C)OC(=O)n1cc(C2CN(O)C(=O)C23CCC(=O)N3Cc2ccccc2)c2ccccc21` (configuration not stated): the TGI in experiment [1] was more than 100 µM; in experiment [2], more than 100 µM; in experiment [3], more than 100 µM; in experiment [4], more than 100 µM; in [5], 62 µM; in experiment [6] it was more than 100 µM. Besides, the TGI in [7] is more than 100 µM; in experiment [9], 81.8 µM; in experiment [10], more than 100 µM.

As to `CS(=O)(=O)NC12CCC(c3ccccc31)c1ccccc12`, the TGI in experiment [1], in experiment [2], in experiment [3], in experiment [4], in experiment [5] and in [6] was more than 100 µM in each case. Besides, the TGI in experiment [8], in experiment [9] and in experiment [10] was more than 100 µM in each case.

As to `NC(=O)CO/N=C1/C(c2c(O)[nH]c3ccccc23)=Nc2ccccc21`, the TGI in experiment [1], in experiment [2], in experiment [3], in [4], in experiment [5] and in [6] was more than 100 µM each time. Also, the TGI in experiment [7] is more than 100 µM; in [8], more than 100 µM; in experiment [9] it was more than 100 µM; in experiment [10] it was more than 56.9 µM.

Regarding `Cc1cc2c(c(=O)n1C)SCC2`, the TGI in experiment [1], in experiment [2], in experiment [3], in [4], in experiment [5] and in experiment [6] was more than 100 µM in each case. Moreover, the TGI in experiment [7], in experiment [8], in [9] and in experiment [10] was more than 100 µM throughout.

`O=C(c1ccco1)N(C(=S)OC12CC3CC(CC(C3)C1)C2)c1ccccc1`: the TGI in [1] is 93.4 µM; in experiment [2], more than 100 µM; in experiment [3] it was 59.5 µM; in experiment [4], 98 µM; in [5] it was more than 100 µM; in [6], 60.3 µM. Besides, the TGI is more than 100 µM in experiment [7], more than 100 µM in experiment [8], 62.8 µM in [9] and 97.9 µM in experiment [10].

`O=C(/C=C/c1cccs1)c1ccccc1Cl`: the TGI in [1] was 27.8 µM; in experiment [2] it was 23 µM; in experiment [3] it was 33.9 µM; in [4] it was 35.5 µM; in experiment [5], more than 65.7 µM; in [6], 34.5 µM. Besides, the TGI in experiment [7] was 36.2 µM; in experiment [8], 38.8 µM; in [9], 30.2 µM; in experiment [10], more than 47.6 µM.

For `O=c1cc(NCc2ccncc2)[nH]c(=O)[nH]1`, the TGI in experiment [1], in experiment [2], in experiment [3], in [4], in experiment [5] and in experiment [6] was more than 100 µM throughout. Further, the TGI in [7], in experiment [8], in experiment [9] and in experiment [10] was more than 100 µM throughout.

Turning to `Cc1ccc(S(=O)(=O)N(CC(O)COc2ccccc2)c2ccc(F)cc2F)cc1` (configuration not stated), the TGI in experiment [1] was 31 µM; in experiment [2], 29.9 µM; in experiment [3], 53.8 µM; in experiment [4] it was 39.9 µM; in [5], 41.9 µM; in experiment [6], 25.3 µM. Besides, the TGI was determined as 34.4 µM in experiment [7], 29.7 µM in [8], 34.2 µM in [9] and 73.6 µM in experiment [10].

`O=C1c2ccccc2-c2[nH]c3cn[nH]c(=O)c3c21`: the TGI in [1], in experiment [2], in experiment [3], in experiment [4], in experiment [5] and in [6] was more than 100 µM in each case. Besides, the TGI in experiment [7], in [9] and in experiment [10] was more than 100 µM each time.

Consider `CC(C)(C)C1CC[C@H](O)[C@H]([C@H](O)CC2CC(=O)N(c3ccccc3)C(=O)C2)C1` (some centres not stated), for which the TGI in experiment [1], in experiment [2], in experiment [3], in [4], in experiment [5] and in experiment [6] was more than 100 µM throughout. The TGI in experiment [7], in experiment [8], in [9] and in experiment [10] was more than 100 µM each time.

With `CC(C)C1(O)C(=O)N(c2c(F)c(F)c(F)c(F)c2F)C(=S)N1CCSc1ccccc1` (configuration not stated), the TGI in experiment [1] came to 33.3 µM; in experiment [2] it was 24.7 µM; in experiment [3] it was 31.7 µM; in experiment [4] it was 39.7 µM; in experiment [5], 38.7 µM; in experiment [6] it was 29.2 µM. For the same molecule, the TGI in experiment [7] was found to be 32.1 µM; in experiment [8] it was 30.3 µM; in experiment [9] it was 29.3 µM; in experiment [10], 43 µM.

These data come from PubChem BioAssay (NCI).
